Test results reported in ChEMBL document CHEMBL5715260, “Selectivity Literature for EUbOPEN Chemogenomic Library” (2024).
Each block holds one compound with its values, some of them ahead of it.

Tests used:
[1] = target: Steroidogenic factor 1 (Homo sapiens) (UniProt Q13285); experiment: Selectivity interaction (Reporter gene assay) EUB0001139a NR5A1; design: recommended concentration 1 uM; details: screened at recom. conc., Selectivity number of off-targets 1.0, Selectivity number of targets 5.0, Source Knowledge inhouse
Sequence of Steroidogenic factor 1 (Homo sapiens) (Q13285 whole entry): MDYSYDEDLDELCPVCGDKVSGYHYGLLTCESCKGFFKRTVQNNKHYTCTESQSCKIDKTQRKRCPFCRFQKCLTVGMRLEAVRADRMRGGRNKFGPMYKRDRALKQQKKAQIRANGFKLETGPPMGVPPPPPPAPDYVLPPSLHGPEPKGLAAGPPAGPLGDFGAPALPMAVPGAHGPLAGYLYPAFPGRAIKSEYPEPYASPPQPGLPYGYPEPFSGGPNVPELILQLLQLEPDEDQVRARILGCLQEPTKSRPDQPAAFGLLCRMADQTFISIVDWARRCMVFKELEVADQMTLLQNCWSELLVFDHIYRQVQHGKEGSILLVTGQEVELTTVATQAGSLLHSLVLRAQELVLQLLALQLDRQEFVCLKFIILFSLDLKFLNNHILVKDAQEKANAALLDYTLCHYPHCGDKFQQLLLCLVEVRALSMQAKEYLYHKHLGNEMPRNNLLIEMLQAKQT

[2] = target: T1, Hepatocyte nuclear factor 4-alpha (Homo sapiens) (UniProt P41235); experiment: Selectivity interaction (Reporter gene assay) EUB0001139a HNF4A; design: recommended concentration 1 uM
T1 sequence (whole entry): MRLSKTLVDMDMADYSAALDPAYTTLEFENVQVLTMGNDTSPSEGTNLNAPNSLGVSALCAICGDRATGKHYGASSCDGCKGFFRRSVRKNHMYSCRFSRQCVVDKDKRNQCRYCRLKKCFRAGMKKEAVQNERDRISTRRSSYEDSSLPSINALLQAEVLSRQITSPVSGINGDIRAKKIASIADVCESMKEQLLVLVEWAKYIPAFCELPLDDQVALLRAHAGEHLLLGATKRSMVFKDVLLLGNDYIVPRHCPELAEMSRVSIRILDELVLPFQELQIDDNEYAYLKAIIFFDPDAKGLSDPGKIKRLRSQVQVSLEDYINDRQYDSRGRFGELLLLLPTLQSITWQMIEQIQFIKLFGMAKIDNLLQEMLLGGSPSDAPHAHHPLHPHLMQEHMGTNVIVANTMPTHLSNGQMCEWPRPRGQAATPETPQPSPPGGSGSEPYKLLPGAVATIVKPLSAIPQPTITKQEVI

[3] = target: T2, Nuclear receptor subfamily 2 group C member 1 (Homo sapiens) (UniProt P13056); experiment: Selectivity interaction (Reporter gene assay) EUB0001139a NR2C1; design: recommended concentration 1 uM
T2 sequence (whole entry): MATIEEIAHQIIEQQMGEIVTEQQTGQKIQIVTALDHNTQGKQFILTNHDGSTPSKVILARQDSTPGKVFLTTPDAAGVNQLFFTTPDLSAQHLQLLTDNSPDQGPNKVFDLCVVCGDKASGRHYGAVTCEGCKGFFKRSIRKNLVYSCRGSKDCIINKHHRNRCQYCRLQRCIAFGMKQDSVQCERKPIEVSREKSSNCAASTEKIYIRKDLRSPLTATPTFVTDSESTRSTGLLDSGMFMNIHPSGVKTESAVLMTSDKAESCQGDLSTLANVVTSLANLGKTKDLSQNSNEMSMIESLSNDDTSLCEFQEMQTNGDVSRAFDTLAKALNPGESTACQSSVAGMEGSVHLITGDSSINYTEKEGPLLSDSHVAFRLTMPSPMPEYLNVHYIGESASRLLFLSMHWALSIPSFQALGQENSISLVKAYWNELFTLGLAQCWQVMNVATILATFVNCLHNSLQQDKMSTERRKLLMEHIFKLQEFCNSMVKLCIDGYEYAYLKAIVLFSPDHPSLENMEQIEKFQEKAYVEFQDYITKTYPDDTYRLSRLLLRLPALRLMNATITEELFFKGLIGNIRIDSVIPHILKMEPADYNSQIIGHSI

[4] = target: Nuclear receptor subfamily 2 group E member 1 (Homo sapiens) (UniProt Q9Y466); experiment: Selectivity interaction (Reporter gene assay) EUB0001139a NR2E1; design: recommended concentration 1 uM
Sequence of Nuclear receptor subfamily 2 group E member 1 (Homo sapiens) (Q9Y466 whole entry): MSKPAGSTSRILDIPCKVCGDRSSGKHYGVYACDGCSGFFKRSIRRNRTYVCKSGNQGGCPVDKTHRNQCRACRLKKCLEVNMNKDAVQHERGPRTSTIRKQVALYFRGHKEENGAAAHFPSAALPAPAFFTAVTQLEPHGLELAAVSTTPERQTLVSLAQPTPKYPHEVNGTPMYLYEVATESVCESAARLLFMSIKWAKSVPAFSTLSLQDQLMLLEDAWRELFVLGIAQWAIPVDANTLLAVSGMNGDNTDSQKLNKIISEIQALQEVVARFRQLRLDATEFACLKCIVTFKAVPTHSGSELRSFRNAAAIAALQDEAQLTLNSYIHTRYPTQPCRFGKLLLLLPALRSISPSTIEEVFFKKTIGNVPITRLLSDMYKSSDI

[5] = target: Nuclear receptor subfamily 4immunitygroup A member 1 (Homo sapiens) (UniProt P22736); experiment: Selectivity interaction (Reporter gene assay) EUB0001139a NR4A1; design: recommended concentration 1 uM
Sequence of Nuclear receptor subfamily 4immunitygroup A member 1 (Homo sapiens) (P22736 whole entry): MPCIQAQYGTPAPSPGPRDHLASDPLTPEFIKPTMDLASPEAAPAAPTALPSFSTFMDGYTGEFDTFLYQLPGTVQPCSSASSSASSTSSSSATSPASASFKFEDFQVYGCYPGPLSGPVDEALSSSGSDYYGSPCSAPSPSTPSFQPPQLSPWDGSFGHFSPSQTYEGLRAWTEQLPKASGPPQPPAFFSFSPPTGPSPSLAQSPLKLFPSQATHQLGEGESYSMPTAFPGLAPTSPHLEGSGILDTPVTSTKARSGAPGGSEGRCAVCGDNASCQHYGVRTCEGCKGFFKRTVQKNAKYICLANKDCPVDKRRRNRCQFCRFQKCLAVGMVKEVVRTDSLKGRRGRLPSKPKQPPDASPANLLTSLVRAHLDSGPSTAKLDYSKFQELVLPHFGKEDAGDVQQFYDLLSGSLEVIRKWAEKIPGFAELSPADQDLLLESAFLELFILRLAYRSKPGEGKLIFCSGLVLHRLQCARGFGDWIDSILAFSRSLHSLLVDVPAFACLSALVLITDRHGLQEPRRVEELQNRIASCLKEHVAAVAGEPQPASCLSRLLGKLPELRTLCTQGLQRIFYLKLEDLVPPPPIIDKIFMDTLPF

[6] = target: T3, Alpha trans-inducing protein (Human alphaherpesvirus 1) (UniProt A0A5J6DW59); experiment: Selectivity interaction (Reporter gene assay) EUB0001139a UL48; design: recommended concentration 1 uM
T3 sequence (A0A5J6DW59 as listed by the source): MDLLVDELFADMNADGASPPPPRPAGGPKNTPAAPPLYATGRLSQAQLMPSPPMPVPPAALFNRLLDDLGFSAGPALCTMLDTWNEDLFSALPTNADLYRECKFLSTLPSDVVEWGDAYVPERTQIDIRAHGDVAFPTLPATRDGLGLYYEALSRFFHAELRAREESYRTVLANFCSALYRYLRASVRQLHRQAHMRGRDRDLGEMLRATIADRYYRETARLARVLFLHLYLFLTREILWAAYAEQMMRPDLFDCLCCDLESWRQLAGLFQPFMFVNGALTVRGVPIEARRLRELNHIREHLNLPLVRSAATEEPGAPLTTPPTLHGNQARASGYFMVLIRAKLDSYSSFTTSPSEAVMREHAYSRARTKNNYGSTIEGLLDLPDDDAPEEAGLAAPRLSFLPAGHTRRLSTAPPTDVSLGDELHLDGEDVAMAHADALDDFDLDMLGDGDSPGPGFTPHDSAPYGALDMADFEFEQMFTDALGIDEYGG

[7] = target: T4, Retinoic acid receptor RXR-alpha (Homo sapiens) (UniProt P19793); experiment: Selectivity interaction (Reporter gene assay) EUB0001139a RXRA; design: recommended concentration 1 uM
T4 sequence (whole entry): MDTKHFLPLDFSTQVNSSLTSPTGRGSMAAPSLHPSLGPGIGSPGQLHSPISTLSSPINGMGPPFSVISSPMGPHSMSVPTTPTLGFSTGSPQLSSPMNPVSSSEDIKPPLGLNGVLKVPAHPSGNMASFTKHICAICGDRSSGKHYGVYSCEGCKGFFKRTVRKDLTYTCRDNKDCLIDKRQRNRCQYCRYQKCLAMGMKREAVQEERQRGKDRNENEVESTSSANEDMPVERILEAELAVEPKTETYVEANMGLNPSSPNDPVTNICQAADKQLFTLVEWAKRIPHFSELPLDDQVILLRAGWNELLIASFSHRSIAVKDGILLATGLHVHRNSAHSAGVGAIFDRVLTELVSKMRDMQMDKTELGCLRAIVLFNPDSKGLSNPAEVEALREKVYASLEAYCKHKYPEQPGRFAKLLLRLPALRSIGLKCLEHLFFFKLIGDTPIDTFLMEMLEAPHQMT

[8] = target: SRSF protein kinase 1 (Homo sapiens) (UniProt Q96SB4); experiment: Selectivity interaction (Kinase panel (binding assay)) EUB0001089a SRPK1; design: recommended concentration 1 uM; details: at 25 µM
Sequence of SRSF protein kinase 1 (Homo sapiens) (Q96SB4 whole entry): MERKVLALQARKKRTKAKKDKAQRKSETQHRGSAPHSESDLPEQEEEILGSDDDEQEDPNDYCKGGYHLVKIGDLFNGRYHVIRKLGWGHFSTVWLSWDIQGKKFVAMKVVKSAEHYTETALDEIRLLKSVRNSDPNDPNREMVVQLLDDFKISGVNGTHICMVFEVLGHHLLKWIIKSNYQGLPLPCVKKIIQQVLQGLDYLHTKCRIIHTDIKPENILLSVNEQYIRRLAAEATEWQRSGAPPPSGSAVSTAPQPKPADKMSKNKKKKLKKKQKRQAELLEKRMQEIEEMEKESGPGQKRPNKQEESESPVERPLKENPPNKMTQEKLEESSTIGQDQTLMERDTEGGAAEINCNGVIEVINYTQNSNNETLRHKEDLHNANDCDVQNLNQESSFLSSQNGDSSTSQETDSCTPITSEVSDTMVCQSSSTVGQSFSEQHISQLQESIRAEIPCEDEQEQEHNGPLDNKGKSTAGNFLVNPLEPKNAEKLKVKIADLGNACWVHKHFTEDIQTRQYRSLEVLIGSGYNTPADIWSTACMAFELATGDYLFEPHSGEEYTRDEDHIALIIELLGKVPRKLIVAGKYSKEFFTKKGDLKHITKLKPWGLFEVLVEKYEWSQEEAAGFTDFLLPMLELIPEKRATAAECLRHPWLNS

[9] = target: Peroxisome proliferator-activated receptor delta (Homo sapiens) (UniProt Q03181); experiment: Selectivity interaction (Reporter gene assay) EUB0001140a PPARD; design: recommended concentration 1 uM; details: screened at recom. conc., Selectivity number of off-targets 1.0, Selectivity number of targets 19.0, Source Knowledge inhouse
Sequence of Peroxisome proliferator-activated receptor delta (Homo sapiens) (Q03181 whole entry): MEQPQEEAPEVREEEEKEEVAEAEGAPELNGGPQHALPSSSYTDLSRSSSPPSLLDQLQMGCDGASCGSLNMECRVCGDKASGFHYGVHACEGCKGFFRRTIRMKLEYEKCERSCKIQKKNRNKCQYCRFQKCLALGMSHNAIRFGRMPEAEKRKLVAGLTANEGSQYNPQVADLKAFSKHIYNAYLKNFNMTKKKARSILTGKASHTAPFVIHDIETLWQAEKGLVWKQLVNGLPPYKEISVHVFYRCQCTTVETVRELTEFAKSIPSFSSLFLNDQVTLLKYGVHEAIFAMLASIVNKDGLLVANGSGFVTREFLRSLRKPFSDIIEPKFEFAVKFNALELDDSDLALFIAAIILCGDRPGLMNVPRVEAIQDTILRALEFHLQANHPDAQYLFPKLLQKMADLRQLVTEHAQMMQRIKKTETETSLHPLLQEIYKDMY

[10] = target: T1, Hepatocyte nuclear factor 4-alpha (Homo sapiens); experiment: Selectivity interaction (Reporter gene assay) EUB0001140a HNF4A; design: recommended concentration 1 uM
[11] = target: T2, Nuclear receptor subfamily 2 group C member 1 (Homo sapiens); experiment: Selectivity interaction (Reporter gene assay) EUB0001140a NR2C1; design: recommended concentration 1 uM
[12] = target: Nuclear receptor subfamily 2 group E member 1 (Homo sapiens) (UniProt Q9Y466); experiment: Selectivity interaction (Reporter gene assay) EUB0001140a NR2E1; design: recommended concentration 1 uM
[13] = target: Nuclear receptor subfamily 4immunitygroup A member 1 (Homo sapiens) (UniProt P22736); experiment: Selectivity interaction (Reporter gene assay) EUB0001140a NR4A1; design: recommended concentration 1 uM
[14] = target: Steroidogenic factor 1 (Homo sapiens) (UniProt Q13285); experiment: Selectivity interaction (Reporter gene assay) EUB0001140a NR5A1; design: recommended concentration 1 uM
[15] = target: T3, Alpha trans-inducing protein (Human alphaherpesvirus 1); experiment: Selectivity interaction (Reporter gene assay) EUB0001140a UL48; design: recommended concentration 1 uM
[16] = target: T4, Retinoic acid receptor RXR-alpha (Homo sapiens); experiment: Selectivity interaction (Reporter gene assay) EUB0001140a RXRA; design: recommended concentration 1 uM
[17] = target: T1, Hepatocyte nuclear factor 4-alpha (Homo sapiens); experiment: Selectivity interaction (Reporter gene assay) EUB0001081a HNF4A; design: recommended concentration 10 uM
[18] = target: T2, Nuclear receptor subfamily 2 group C member 1 (Homo sapiens); experiment: Selectivity interaction (Reporter gene assay) EUB0001081a NR2C1; design: recommended concentration 10 uM
[19] = target: Nuclear receptor subfamily 2 group E member 1 (Homo sapiens) (UniProt Q9Y466); experiment: Selectivity interaction (Reporter gene assay) EUB0001081a NR2E1; design: recommended concentration 10 uM
[20] = target: Nuclear receptor subfamily 4immunitygroup A member 1 (Homo sapiens) (UniProt P22736); experiment: Selectivity interaction (Reporter gene assay) EUB0001081a NR4A1; design: recommended concentration 10 uM
[21] = target: Steroidogenic factor 1 (Homo sapiens) (UniProt Q13285); experiment: Selectivity interaction (Reporter gene assay) EUB0001081a NR5A1; design: recommended concentration 10 uM
[22] = target: T3, Alpha trans-inducing protein (Human alphaherpesvirus 1); experiment: Selectivity interaction (Reporter gene assay) EUB0001081a UL48; design: recommended concentration 10 uM
[23] = target: T4, Retinoic acid receptor RXR-alpha (Homo sapiens); experiment: Selectivity interaction (Reporter gene assay) EUB0001081a RXRA; design: recommended concentration 10 uM; details: reference bexarotene 1 uM, Selectivity number of off-targets 0.0, Selectivity number of targets 1.0, Source Knowledge inhouse
[24] = target: T1, Hepatocyte nuclear factor 4-alpha (Homo sapiens); experiment: Selectivity interaction (Reporter gene assay) EUB0001143a HNF4A; design: recommended concentration 1 uM
[25] = target: T2, Nuclear receptor subfamily 2 group C member 1 (Homo sapiens); experiment: Selectivity interaction (Reporter gene assay) EUB0001143a NR2C1; design: recommended concentration 1 uM
[26] = target: Nuclear receptor subfamily 2 group E member 1 (Homo sapiens) (UniProt Q9Y466); experiment: Selectivity interaction (Reporter gene assay) EUB0001143a NR2E1; design: recommended concentration 1 uM
[27] = target: Nuclear receptor subfamily 4immunitygroup A member 1 (Homo sapiens) (UniProt P22736); experiment: Selectivity interaction (Reporter gene assay) EUB0001143a NR4A1; design: recommended concentration 1 uM
[28] = target: Steroidogenic factor 1 (Homo sapiens) (UniProt Q13285); experiment: Selectivity interaction (Reporter gene assay) EUB0001143a NR5A1; design: recommended concentration 1 uM
[29] = target: T3, Alpha trans-inducing protein (Human alphaherpesvirus 1); experiment: Selectivity interaction (Reporter gene assay) EUB0001143a UL48; design: recommended concentration 1 uM
[30] = target: T4, Retinoic acid receptor RXR-alpha (Homo sapiens); experiment: Selectivity interaction (Reporter gene assay) EUB0001143a RXRA; design: recommended concentration 1 uM; details: reference bexarotene 1 uM, Selectivity number of off-targets 0.0, Selectivity number of targets 1.0, Source Knowledge inhouse

Structure (SMILES): CN1CC(C(=O)NCc2ccc3c(-c4cccc(C(N)=S)c4)cn(C4CCN(S(=O)(=O)C(F)(F)F)CC4)c3c2)C1
inhibition [8]: 60%

Structure (SMILES): COc1ccc(OC(=O)N(CC(=O)O)Cc2ccc(OCCc3nc(-c4ccccc4)oc3C)cc2)cc1
Fold activation [9]: 6.61 | Remaining activity [10]: 0.799 | Remaining activity [11]: 0.747 | Remaining activity [12]: 0.91 | Fold activation [13]: 1.19 | Remaining activity [14]: 0.916 | P-value [15]: 2.24e-06 | Relative activation [16]: 0.862%

Structure (SMILES): CC(C)c1cc(Oc2c(Cl)cc(-n3nc(C#N)c(=O)[nH]c3=O)cc2Cl)n[nH]c1=O
Remaining activity [17]: 0.559 | Remaining activity [18]: 0.569 | Remaining activity [19]: 0.788 | Remaining activity [20]: 0.741 | Remaining activity [21]: 0.559 | P-value [22]: 0.0087 | Relative activation [23]: 1.67%

Continued, values first:

Fold activation [1]: 2 | Fold activation [2]: 1.47 | Remaining activity [3]: 0.686 | Fold activation [4]: 1.12 | Remaining activity [5]: 0.863 | P-value [6]: 0.009 | Relative activation [7]: 0.726%
Structure (SMILES): O=C(O)Cc1cc(I)c(Oc2ccc(O)c(I)c2)c(I)c1

Remaining activity [24]: 0.853 | Remaining activity [25]: 0.85 | Remaining activity [26]: 0.683 | Remaining activity [27]: 0.758 | Remaining activity [28]: 0.857 | P-value [29]: 3.16e-05 | Relative activation [30]: 0.529%
Structure (SMILES): COc1cc2c(cc1CC=C(C)C)C(=O)C[C@@H](c1ccc(O)cc1)O2
